Key:
[1] = test system: SGC-7901; test: cells; details: Homo sapiens, SGC-7901, 48 h
Description: Cytotoxicity against human SGC7901 cells after 48 hrs by MTT assay

[2] = test system: HeLa; test: cells; details: Homo sapiens, 48 h
Description: Cytotoxicity against human HeLa cells after 48 hrs by MTT assay

[3] = test system: A549; test: cells; details: Homo sapiens, A549, 48 h
Description: Cytotoxicity against human A549 cells after 48 hrs by MTT assay

[4] = test system: SW480; test: cells; details: Homo sapiens, SW480, 48 h
Description: Cytotoxicity against human SW480 cells after 48 hrs by MTT assay

[5] = physchem; details: octanol/water
Description: Lipophilicity, log P of the compound

[6] = test system: MDA-MB-231; test: cells; details: Homo sapiens, MDA-MB-231, 48 h
Description: Cytotoxicity against human MDA-MB-231 cells after 48 hrs by MTT assay

[7] = cells; details: Homo sapiens, QGY7701, 48 h
Description: Cytotoxicity against human QGY7701 cells after 48 hrs by MTT assay

[8] = test system: SW480; test: Ratio of 5-fluorouracil IC50 to compound IC50 for human SW480 cells after 48 hrs by MTT assay; type: functional
[9] = test system: HeLa; test: Ratio of 5-fluorouracil IC50 to compound IC50 for human HeLa cells after 48 hrs by MTT assay; type: functional
[10] = test system: A549; test: Ratio of 5-fluorouracil IC50 to compound IC50 for human A549 cells after 48 hrs by MTT assay; type: functional

SMILES	IC50 [1] [µM]	IC50 [2] [µM]	IC50 [3] [µM]	IC50 [4] [µM]	logP [5]	IC50 [6] [µM]	IC50 [7] [µM]	Ratio IC50 [8]	Ratio IC50 [9]	Ratio IC50 [10]
COc1ccc(C(=O)c2ccc(=O)n(-c3ccccc3C)c2)c(OCc2cn(Cc3ccc(Cl)cc3Cl)nn2)c1	0.41	3.51	2.56	2.22	4.23	1.19	6.43			
COc1ccc(C(=O)c2ccc(=O)n(-c3ccccc3C)c2)c(OCc2cn(Cc3cccc(Cl)c3)nn2)c1	> 30	3.71	1.53	1.37	4.05	0.38	> 30			
COc1ccc(C(=O)c2ccc(=O)n(-c3ccccc3C)c2)c(OCc2cn(Cc3ccc(Cl)cc3)nn2)c1	1.1	0.54	0.86	0.21	4.05	0.32	> 30	74.8	30.6	6.5
COc1ccc(C(=O)c2ccc(=O)n(-c3ccccc3C)c2)c(OCc2cn(Cc3ccccc3F)nn2)c1	> 30	4.83	3.96	3.28	3.59	1.14	> 30			
COc1ccc(C(=O)c2ccc(=O)n(-c3ccccc3C)c2)c(OCc2cn(Cc3cccc(F)c3)nn2)c1	> 30	5.75	3.06	2.23	3.59	1.24	> 30			
COc1ccc(C(=O)c2ccc(=O)n(-c3ccccc3C)c2)c(OCc2cn(Cc3ccc(F)cc3)nn2)c1	0.19	8.48	0.48	2.37	3.59	1.46	5.44			
COc1ccc(C(=O)c2ccc(=O)n(-c3ccccc3C)c2)c(OCc2cn(Cc3ccccc3C)nn2)c1	> 30	4.86	3.21	3.07	4.1	1.34	4.63			
COc1ccc(C(=O)c2ccc(=O)n(-c3ccccc3C)c2)c(OCc2cn(Cc3cccc(C)c3)nn2)c1	> 30	3.27	3.25	2.45	4.1	0.21	6.38			
COc1ccc(C(=O)c2ccc(=O)n(-c3ccccc3C)c2)c(OCc2cn(Cc3ccc(C)cc3)nn2)c1	5.48	0.38	0.61	0.48	4.1	0.49	> 30			
COc1ccc(Cn2cc(COc3cc(OC)ccc3C(=O)c3ccc(=O)n(-c4ccccc4C)c3)nn2)cc1	1.28	0.99	1.54	> 30	3.79	0.59	> 30			
COc1ccc(C(=O)C2=CC(c3ccccc3C)C(=O)C=C2)c(OCc2cn(Cc3ccc(C(C)(C)C)cc3)nn2)c1 (stereo unspecified)	3.52	0.34	1.73	0.11		3.35	3.39	142.7	48.5	
COc1ccc(C(=O)c2ccc(=O)n(-c3ccccc3C)c2)c(OC(=O)c2ccc(C)cc2)c1	3.96	3.27	3.24	2.31	4.32	0.54	> 30			
CCCCC(CC)C(=O)Oc1cc(OC)ccc1C(=O)c1ccc(=O)n(-c2ccccc2C)c1 (stereo unspecified)	1.48	2.28	2.95	3.35	5.04	0.37	> 30			
COc1ccc(C(=O)c2ccc(=O)n(-c3ccccc3C)c2)c(OC(=O)c2ccc(Cl)cc2)c1	5.79	1.56	5.23	1.33	4.27	1.84	> 30			
COc1ccc(C(=O)c2ccc(=O)n(-c3ccccc3C)c2)c(OC(=O)c2ccc(F)cc2)c1	3.62	6.86	3.68	2.78	3.81	2.35	9.64			
COc1ccc(C(=O)c2ccc(=O)n(-c3ccccc3C)c2)c(OC(C)=O)c1	6.21	> 30	> 30	> 30	2.7	> 30	> 30			
COc1ccc(C(=O)c2ccc(=O)n(-c3ccccc3C)c2)c(OC(=O)c2ccccc2)c1	1.42	7.29	4.47	3.12	4.09	1.18	> 30			

SMILES	IC50 [1] [µM]	IC50 [2] [µM]	IC50 [3] [µM]	IC50 [4] [µM]	logP [5]	IC50 [6] [µM]	IC50 [7] [µM]	Ratio IC50 [8]	Ratio IC50 [9]	Ratio IC50 [10]
COc1ccc(C(=O)c2ccc(=O)n(-c3ccccc3C)c2)c(OC(=O)Cc2ccc(Cl)cc2)c1	3.48	0.58	0.49	0.58	4.4	2.44	5.68			
COc1ccc(C(=O)c2ccc(=O)n(-c3ccccc3C)c2)c(OC(=O)Cc2ccccc2Cl)c1	1.45	0.87	1.94	1.17	4.4	2.97	6.05			
COc1ccc(C(=O)c2ccc(=O)n(-c3ccccc3C)c2)c(OC(=O)c2cc([N+](=O)[O-])cc([N+](=O)[O-])c2)c1	2.44	5.33	3.89	2.75	3.88	3.28	> 30			
CCCOC(=O)Oc1cc(OC)ccc1C(=O)c1ccc(=O)n(-c2ccccc2C)c1	4.18	7.03	6.13	5.97	3.31	2.11	> 30			
COc1ccc(C(=O)c2ccc(=O)n(-c3ccccc3C)c2)c(OC(=O)OCc2ccccc2)c1	0.69	0.46	0.59	0.52	4.23	0.75	4.33	30.2	35.9	9.5
CCOC(=O)Oc1cc(OC)ccc1C(=O)c1ccc(=O)n(-c2ccccc2C)c1	3.35	7.44	5.83	4.56	2.95	> 30	> 30			
C#CCOc1cc(OC)ccc1C(=O)c1ccc(=O)n(-c2ccccc2C)c1	6.94	7.82	7.59	5.33		> 30	9.08			
COc1ccc(C(=O)c2ccc(=O)n(-c3ccccc3C)c2)c(OCc2cn(Cc3ccccc3)nn2)c1	1.25	4.23	3.64	2.51	3.88	> 30	> 30			
COc1ccc(C(=O)c2ccc(=O)n(-c3ccccc3C)c2)c(OCc2cn(Cc3ccccc3Br)nn2)c1	1.23	5.22	5.35	3.62	4.05	> 30	> 30			
COc1ccc(C(=O)c2ccc(=O)n(-c3ccccc3C)c2)c(OCc2cn(Cc3cccc(Br)c3)nn2)c1	5.68	4.52	4.46	2.32	4.05	> 30	> 30			
COc1ccc(C(=O)c2ccc(=O)n(-c3ccccc3C)c2)c(OCc2cn(Cc3ccc(Br)cc3)nn2)c1	2.29	4.25	5.45	> 30	4.23	2.47	4.99			
COc1ccc(C(=O)c2ccc(=O)n(-c3ccccc3C)c2)c(OCc2cn(Cc3ccccc3C#N)nn2)c1	> 30	8.05	8.32	> 30	3.6	> 30	> 30			
COc1ccc(C(=O)c2ccc(=O)n(-c3ccccc3C)c2)c(OCc2cn(Cc3ccc(C#N)cc3)nn2)c1	> 30	0.89	4.31	> 30	3.6	0.43	2.87			
COc1ccc(C(=O)c2ccc(=O)n(-c3ccccc3C)c2)c(OCc2cn(Cc3cccc(O[N+](=O)[O-])c3)nn2)c1	0.55	3.12	3.61	4.42	3.77	1.39	3.01			
COc1ccc(C(=O)c2ccc(=O)n(-c3ccccc3C)c2)c(OCc2cn(Cc3ccccc3Cl)nn2)c1	> 30	1.7	0.69	0.39	4.05	0.38	4.72			
O=c1[nH]cc(F)c(=O)[nH]1 [FLUOROURACIL]		16.5								

— ChEMBL document CHEMBL2417411, “Design and synthesis of novel 2'-hydroxy group substituted 2-pyridone derivatives as anticancer agents” (Eur J Med Chem, 2013)
